From PMC10155203 (Molecular Pharmaceutics, 2023)
In brackets after ≈: the same amount, converted by molar mass. Where two headings read alike, the source gives them in different places.

How the values were obtained:
[1] = cited from earlier work; for median Tmax: humans, single oral dose
CYP2D6 = details: cited from earlier work
[2] = Study 1: food effect clinical study, single oral dose of encorafenib 100 mg, fasted vs high-fat meal, plasma PK and safety; format: in vivo, human; details: for AUC(0-inf) / AUC(0-t) / Cmax: GM (GCV%); for half-life: arithmetic mean ± SD; for Vd/F / CL/F: mean ± SD; for Vd/F: read-out: Vz/F; for Tmax: median (range)
Procedure: Both studies were conducted at the Celerion Clinical Research Unit in Lincoln, NE. The trial protocols and informed consent documentation were reviewed and approved by the institutional review boards at the center. These studies were conducted in compliance with the ethical principles originating in or derived from the Declaration of Helsinki and in compliance with all International Council for Harmonization Good Clinical Practice Guideline.
In study 1, participants were randomized to 2 treatment sequences. Participants were either fasted or fed a high-fat meal on day 1 of the first period and received the alternate treatment on day 1 of the second period. Each dose was separated by a washout period of at least 7 days. […] The high-fat breakfast consisted of 2 slices of buttered toast, 2 fried eggs, 2 strips of bacon, 4 oz. of hash brown potatoes, and 240 mL of whole milk. This breakfast met the criteria specified in the FDA guidance for a high-fat meal.[6] […] Water (except water provided with each dosing) was restricted 1 h prior to and 1 h after each study drug administration but was allowed ad libitum at all other times. Participants were housed from day −1 of each period until after the 36 h blood draw and/or study procedures on day 2. Participants returned to the clinical research unit for the 48 and 72 h blood draws.
Additionally, participants were instructed not to crush, split, or chew the study drug.
Serial blood samples for PK were collected in Study 1 predose and at 0.25, 0.5, 1, 1.5, 2, 2.5, 3, 3.5, 4, 5, 6, 8, 10, 12, 24, 36, and 72 h after the day 1 dose in each period.
The actual sample collection times were used for the PK parameter analysis.
The overall safety profile was characterized by laboratory test abnormalities, physical examination, vital signs, ECGs, and AEs. […] Triplicate ECGs were also measured at the end of the studies or upon early termination.
These were back-transformed to obtain the geometric LSMs and ratios of LSMs (geometric mean ratios [GMRs]), and the corresponding 90% CIs of the GMRs, on the original scale.

CYP3A4 = test system: CYP3A4; set-up: method as in PMID 27693678; details: fitted using in vivo data; cited from earlier work
[3] = Physicochemical and biopharmaceutical properties obtained in-house (PBPK input, experimental data)
Procedure: Simulations were performed using the commercially available PBPK modeling platform GastroPlus 9.8 (Simulations Plus, Inc., Lancaster, CA). Input and final parameters for the model were published by Del Frari et al.[29] […] The fasted, fed, and PPI states were predicted for the encorafenib commercial capsule. All input data for the platform are shown in Table 2 and were based on physicochemical properties of the compound, formulation characteristics and absorption, distribution, metabolism, and excretion properties. […] Related to dissolution, the Johnson model was selected. This model is an extension of the Nernst–Brunner dissolution model and accounts for changing particle radius during dissolution as well as for dissolution of cylindrical particles. […] Gathered information concerning physicochemical and biopharmaceutical properties was obtained in-house. Fasted state physiology in the human GI tract was simulated by selecting the fluid volumes as observed by the magnetic resonance imaging study of Mudie et al.[30] to address biorelevant fluid volumes in the different GI compartments. In the case of the fed state, the stomach transit time was adjusted and optimized to a value of 2.25 h for consistency with the observed PK data, and the physiology was adjusted to fed state conditions (default settings). To simulate PPI conditions, the fasted state physiology was selected (magnetic resonance imaging fluid volumes). However, gastric pH was set to a constant value of pH 7 during the simulation instead of the normal gastric pH of 1.3, as used in the fasted state default settings. […] However, the same results were observed even when the gastric pH was adjusted to a value of 4 or 5 (data not shown).[31] Distribution and clearance parameters were adjusted to reflect a 2-compartmental approach based on the average PK profile of the 100 mg dose as administered in the fasted state to healthy participants (average weight, 83 kg).

[4] = human plasma; cited from earlier work
[5] = single radiolabeled dose of 100 mg
[6] = human, plasma, po, 100 mg, study 1, 100 mg single oral dose, fasted
[7] = human, plasma, po, 100 mg, study 1, 100 mg single oral dose, fed
[8] = study 1, 100 mg single oral dose, fasted
[9] = study 1, 100 mg single oral dose, fed

COC(=O)N[C@@H](C)CNc1nccc(-c2cn(C(C)C)nc2-c2cc(Cl)cc(NS(C)(=O)=O)c2F)n1 [encorafenib, Encorafenib]
dose proportionality ([1]; dose range of 50 to 700 mg QD after a single dose): approximately dose proportional
apparent volume of distribution ([1]; geometric mean (coefficient of variation 70%)): 164 L
median Tmax ([1]; fasted state): approximately 2 h
median Tmax ([1]; fed state): ~4 h
dose absorbed ([1]; oral): at least 86%
administered dose recovered in feces [1, 5]: 47%
administered dose recovered in feces unchanged [1, 5]: 5%
administered dose recovered in urine [1, 5]: 47%
administered dose recovered in urine unchanged [1, 5]: 2%
share of metabolism by CYP2D6 (CYP2D6): 1%
AUC(0-inf) [2, 6]: 3120 ng·h/mL
AUC(0-t) [2, 6]: 3130 ng·h/mL
Cmax [2, 6]: 962 ng/mL
half-life [2, 6]: 4.79 ± 3.79 h
Vd/F [2, 6]: 226 ± 207 L
Tmax ([2]; human, plasma, po, 100 mg, study 1, 100 mg single oral dose, fasted, read-out: Tmax): 1.5 h
AUC(0-t) [2, 7]: 3020 ng·h/mL
Cmax [2, 7]: 621 ng/mL
half-life [2, 7]: 5.61 ± 3.69 h
Vd/F [2, 7]: 262 ± 163 L
Tmax ([2]; human, plasma, po, 100 mg, study 1, 100 mg single oral dose, fed, read-out: Tmax): 3.5 h
AUC(0-inf) ([2]; human, plasma, po, 100 mg, study 1, encorafenib 100 mg single oral dose, fed (high-fat meal)): 3030 ng·h/mL
tolerability ([2]; single oral dose of 100 mg, healthy participants): tolerated
changes in vital signs, laboratory values, or ECG measurements ([2]; study 1): No clinically significant changes
participants reporting headache ([2]; study 1): 73%
participants who discontinued due to an AE related to encorafenib ([2]; study 1): 2 participants
severity of AEs ([2]; study 1): all mild in severity
CL/F [2, 8]: 34.64 ± 14.209 L/h
Tmax [2, 8]: 1.495 (0.997, 3.49) h
CL/F [2, 9]: 35.13 ± 12.535 L/h
Tmax [2, 9]: 3.499 (2.00, 5.00) h
delay of median Tmax under fed conditions ([2]; study 1, fed vs fasted): 2 h
Cmax lower in fed state than fasted ([2]; study 1, fed vs fasted, 100 mg): 36%
decrease in AUCinf with a high-fat meal ([2]; study 1, fed vs fasted, 100 mg): 4%
decrease in AUClast with a high-fat meal ([2]; study 1, fed vs fasted, 100 mg): 4%
participants reporting AEs ([2]; study 1, following encorafenib in the fasted state): 79%
participants reporting AEs ([2]; study 1, following encorafenib in the fed state): 92%
participants reporting flushing ([2]; study 1, most common AE): 83%
participants who discontinued due to AEs ([2]; study 1, of 40 participants who entered): 6 participants
participants reporting AEs ([2]; study 1, overall): 95%
gut CYP3A4 Km (CYP3A4): 213.9 mg/L
gut CYP3A4 Vmax (CYP3A4): 0.0945 mg/s
liver CYP3A4 Km (CYP3A4): 213.9 mg/L
liver CYP3A4 Vmax (CYP3A4): 0.0945 mg/s
BCS class behavior ([3]; amorphous drug in the capsule formulation (amorphous solid dispersion)): class 1
solubility ([3]; aqueous buffer, at pH 6.8, experimental data, read-out: reference solubility (amorphous)): 200 µg/mL (≈ 370 µM)
amorphous solubility higher than crystalline solubility ([3]; at pH 6.8): 20 fold
logD ([3]; at pH 6.8, experimental data): 1.8
solubility ([3]; at pH 6.8, experimental data, read-out: reference solubility (crystalline)): 10 µg/mL (≈ 18.5 µM)
Biopharmaceutics Classification System (BCS) class ([3]; drug substance): class 2
logP ([3]; experimental data): 2.59
particle radius ([3]; experimental data, PBPK input): 5 μm
pKa ([3]; experimental data, read-out: pKa (acid)): 6.97
pKa ([3]; experimental data, read-out: pKa (base)): 4.53
in vitro protein binding [4]: 86%
